From patent publication US8304216B2, “Method for production of erythro-or threo-2-amino-3-hydroxypropionic acid ester, novel carbonyl reductase, gene for the reductase, vector, transformant, and method for production of optically active alcohol using those” (Kaneka Corporation, priority 2006, dated 2012)

System: purified polypeptide (carbonyl reductase) from the Brevundimonas diminuta NBRC 12697 strain
Test: Substrate specificity of purified polypeptide: reducing activity against carbonyl compounds (NADH decrease at 340 nm)
Assay type: biochemical
Settings: substrate 2 mM, NADH 0.167 mM, 100 mM phosphate buffer pH 6.5, 0.4% (v/v) DMSO, 30° C., 3 minutes; activity against ethyl N-Boc-2-amino-3-cyclohexyl-3-oxopropionate taken as 100%

| SMILES | relative activity |
| --- | --- |
| O=C(c1ccccc1)C(F)(F)F [2,2,2-trifluoroacetophenone] | 42277% |
| O=C(CCl)c1cccc(Cl)c1 [2,3′-dichloroacetophenone] | 12719% |
| CC(=O)c1ccco1 [2-acetylfuran] | 164% |
| O=C(CCl)c1ccccc1 [2-chloroacetophenone] | 12789% |
| CCCCC(C)=O [2-hexanone] | 1540% |
| CC(C=O)c1ccccc1 (centres unmarked) [2-phenylpropionaldehyde] | 621% |
| CC(=O)c1ccncc1 [4-acetylpyrridine] | 1149% |
| CCOC(=O)C(Cl)C(=O)c1ccccc1 (centres unmarked) [Ethyl 2-chloro-3-oxo-3-phenylpropionate] | 1139% |
| CCOC(=O)C(Cl)C(C)=O (centres unmarked) [Ethyl 2-chloroacetoacetate] | 7264% |
| CCOC(=O)C(C)C(C)=O (centres unmarked) [Ethyl 2-methylacetoacetate] | 425% |
| CCOC(=O)C1CCCC1=O (centres unmarked) [Ethyl 2-oxocyclopentanecarboxylate] | 199% |
| CCCC(=O)C(=O)OCC [Ethyl 2-oxopentanoate] | 6046% |
| CCOC(=O)CC(=O)CCl [Ethyl 4-chloroacetoacetate] | 533470% |
| CCOC(=O)C(NC(=O)OC(C)(C)C)C(=O)C1CCCCC1 (centres unmarked) [Ethyl N-Boc-2-amino-3-cyclohexyl-3-oxopropionate] | 100% |
| CCOC(=O)C(=O)c1ccccc1 [Ethyl benzoylformate] | 12198% |
| COC(=O)CC(C)=O [Methyl acetoacetate] | 1095% |
| COC(=O)C(C)=O [Methyl pyruvate] | 5625% |
| CC(=O)CC(C)=O [acetylacetone] | 273% |
| CC12CCC(C(=O)C1=O)C2(C)C (centres unmarked) [camphorquinone] | 4737% |
| CC(=O)C(C)=O [diacetyl] | 4830% |
| CC(=O)c1cccc(Cl)c1 [m-chloroacetophenone] | 4368% |
| O=Cc1cccc(Cl)c1 [m-chlorobenzaldehyde] | 2138% |
| CC(=O)C=O [methylglyoxal] | 248% |
| CCCCCC=O [n-hexylaldehyde] | 2160% |
| CC(=O)c1ccccc1Cl [o-chloroacetophenone] | 350% |
| O=Cc1ccccc1Cl [o-chlorobenzaldehyde] | 1219% |
| CC(=O)c1ccc(Cl)cc1 [p-chloroacetophenone] | 534% |
| O=Cc1ccc(Cl)cc1 [p-chlorobenzaldehyde] | 445% |
| O=C1CCSC1 [tetrahydrothiophen-3-one] | 156% |
